Read-outs that look alike come from different tables or passages of the source.
Columns and labels:
[1] = Pharmacokinetic studies in rat (i.v.); format: in vivo; conditions: male, Sprague-Dawley, plasma
Method: Animals: Male Sprague-Dawley rats (˜225-350 g) from Charles River Labs were acclimatized for a minimum of 5 days prior to start of study procedures. Body weights were recorded on the day of dosing.
Any abnormalities were documented including presence/absence of wet dog shakes/back muscle contractions (WDS/BMC).
Dosing: Formulations were administered intravenously (i.v.) via the tail vein using a 25 G needle connected to a 1 cc syringe.
The exemplary compounds of Formula (I) were freshly prepared at the appropriate concentrations in 5% Tween-80 in saline.
Blood collection time (h): 0, […], 1 and 4
Volume/time-point: ˜0.25 mL (saphenous vein)
Instrumentation: AB Sciex QTRAP 4000 or 6500 MS/MS system equipped with an LC system with a binary pump, a solvent degasser, a thermostated column compartment, and a multiplate autosampler.
Analysis software: Phoenix® WinNonlin® 8.3 (Pharsight, Certara, Mountainview, CA).
Analysis methods: non-compartmental analysis, linear up/log down trapezoidal rule.
PK parameters: t1/2 and AUC0-tlast was estimated.
The Compounds of Formula (I) were freshly prepared at the appropriate concentrations in 5% Tween-80 in saline.
Instrumentation: AB Sciex QTRAP 4000 or 6500 MS/MS system equipped with an LC system with a binary pump, a solvent degasser, a thermostated column compartment and a multiplate autosampler.
PK parameters: t1/2 and AUC0-tlast will be estimated.

[2] = Plasma protein binding by equilibrium dialysis, rat
Method: 1. The Frozen Plasma (Stored at −80° C.) was Thawed Immediately in a 37° C. Water Bath.
(§1) The working solution of test compounds and control compound was prepared in DMSO at the concentration of 200 μM, and then the working solution was spiked into plasma. The final concentration of compound was 1 μM. The final concentration of DMSO was 0.5%. Ketoconazole was used as positive control in the assay.
The dialysis membranes were soaked in ultrapure water for 60 minutes to separate strips, then in 20% ethanol for 20 minutes, finally in dialysis buffer for 20 minutes.
The dialysis set up was assembled according to the manufacturer's instruction. Each Cell was with 150 μL of plasma sample and dialyzed against equal volume of dialysis buffer (PBS). The assay was performed in duplicate. The dialysis plate was sealed and incubated in an incubator at 37° C. with 5% CO2 at 100 rpm for 6 hours. At the end of incubation, 50 μL of samples from both buffer and plasma chambers were transferred to wells of a 96-well plate.
50 μL of plasma was added to each buffer samples and an equal volume of PBS was supplemented to the collected plasma sample. 400 μL of precipitation buffer acetonitrile containing internal standards (IS, 200 nM labetalol, 100 nM tolbutamide and 100 nM ketoprofen) was added to precipitate protein and release compounds. Samples were vortexed for 2 minutes and centrifuged for 30 minutes at 3,220 g. Aliquot of 50 μL of the supernatant was diluted by 150 μL acetonitrile containing internal standards: ultra-pure H2O=1:1, and the mixture was used for LC-MS/MS analysis.
All calculations were carried out using Microsoft Excel. The concentrations of test compounds in the buffer and plasma chambers were determined from peak area ratios. The percentages of bound compound were calculated as follows: […]
as §1, with “[…].” for “μM.”

[3] = iv, 1.19 mg/kg, rat plasma, i.v., dose 1.19 mg/kg, mean of 3 rats, read-out: Plasma concentration, Mean ± SD
[4] = iv, 1.19 mg/kg, rat plasma, i.v., dose 1.19 mg/kg, rat R01, read-out: Plasma concentration, R01
[5] = iv, 1.19 mg/kg, rat plasma, i.v., dose 1.19 mg/kg, rat R02, read-out: Plasma concentration, R02
[6] = iv, 1.19 mg/kg, rat plasma, i.v., dose 1.19 mg/kg, rat R03, read-out: Plasma concentration, R03
[7] = intravenous, dose per Dose column (1.32-2.09 mg/kg), first animal (R07/R04/R01/R10), read-out: Plasma concentration
[8] = intravenous, dose per Dose column (1.32-2.09 mg/kg), mean of 3 rats, read-out: Plasma concentration, Mean ± SD
[9] = intravenous, dose per Dose column (1.32-2.09 mg/kg), second animal (R08/R05/R02/R11), read-out: Plasma concentration
[10] = intravenous, dose per Dose column (1.32-2.09 mg/kg), third animal (R09/R06/R03/R12), read-out: Plasma concentration
[11] = iv, rat plasma, i.v., dose per Dose column, estimated from 2 points only, first animal (R07/R04/R01/R10), read-out: Apparent t1/2 (converted)
[12] = iv, rat plasma, i.v., dose per Dose column, estimated from 2 points only, mean of 3 rats, read-out: Apparent t1/2, Mean ± SD (converted)
[13] = iv, rat plasma, i.v., dose per Dose column, estimated from 2 points only, second animal (R08/R05/R02/R11), read-out: Apparent t1/2 (converted)
[14] = iv, rat plasma, i.v., dose per Dose column, estimated from 2 points only, third animal (R09/R06/R03/R12), read-out: Apparent t1/2 (converted)
[15] = iv, rat plasma, i.v., dose per Dose column, first animal (R07/R04/R01/R10), read-out: AUC0-tlast
[16] = iv, rat plasma, i.v., dose per Dose column, mean of 3 rats, read-out: AUC0-tlast, Mean ± SD
[17] = iv, rat plasma, i.v., dose per Dose column, second animal (R08/R05/R02/R11), read-out: AUC0-tlast
[18] = iv, rat plasma, i.v., dose per Dose column, third animal (R09/R06/R03/R12), read-out: AUC0-tlast

## CSc1ccc2[nH]cc(C[C@H]3CCCN3C)c2c1 [(R) I-1, (R)-3-((1-Methylpyrrolidin-2-yl)methyl)-5-(methylthio)-1H-indole]
[1]; iv, 1.19 mg/kg, rat plasma, i.v. 1.19 mg/kg, mean of 3 rats, estimated from 2 points only, read-out: Apparent t1/2, Mean ± SD (converted)
  half-life: 47.1 ± 10.4 min
[1]; iv, 1.19 mg/kg, rat plasma, i.v. 1.19 mg/kg, mean of 3 rats, read-out: AUC0-tlast, Mean ± SD
  AUC(0-t): 136 ± 22 ng·h/mL
[1]; iv, 1.19 mg/kg, rat plasma, i.v. 1.19 mg/kg, rat R01, estimated from 2 points only, read-out: Apparent t1/2, R01 (converted)
  half-life: 58.5 min
[1]; iv, 1.19 mg/kg, rat plasma, i.v. 1.19 mg/kg, rat R01, read-out: AUC0-tlast, R01
  AUC(0-t): 151 ng·h/mL
[1]; iv, 1.19 mg/kg, rat plasma, i.v. 1.19 mg/kg, rat R02, estimated from 2 points only, read-out: Apparent t1/2, R02 (converted)
  half-life: 37.9 min
[1]; iv, 1.19 mg/kg, rat plasma, i.v. 1.19 mg/kg, rat R02, read-out: AUC0-tlast, R02
  AUC(0-t): 111 ng·h/mL
[1]; iv, 1.19 mg/kg, rat plasma, i.v. 1.19 mg/kg, rat R03, estimated from 2 points only, read-out: Apparent t1/2, R03 (converted)
  half-life: 44.9 min
[1]; iv, 1.19 mg/kg, rat plasma, i.v. 1.19 mg/kg, rat R03, read-out: AUC0-tlast, R03
  AUC(0-t): 147 ng·h/mL
[1]; [3]
  concentration at 0.25 h: 109 ± 12.9 ng/mL
  concentration at 1 h: 46.1 ± 18.1 ng/mL
  concentration at 4 h: 3.96 ± 2.8 ng/mL
[1]; [4]
  concentration at 0.25 h: 120 ng/mL
  concentration at 1 h: 42.3 ng/mL
  concentration at 4 h: 7.04 ng/mL
[1]; [5]
  concentration at 0.25 h: 112 ng/mL
  concentration at 1 h: 30.3 ng/mL
  concentration at 4 h: 1.56 ng/mL
[1]; [6]
  concentration at 0.25 h: 94.7 ng/mL
  concentration at 1 h: 65.8 ng/mL
  concentration at 4 h: 3.27 ng/mL
[2]; Rat plasma, 1 μM, 6 hours, 37° C.
  % Remaining @ 6 hours: 105.76%
[2]; SD, rat
  recovery at 6 h, 1 µM: 103%
[2]; Sprague-Dawley, rat, plasma
  fraction unbound at 6 h, 1 μM: 0.534

## [2H]C([2H])(c1c[nH]c2ccc(OCCCCCN3C(=O)C4CCCCC4C3=O)cc12)[C@H]1CCCN1C([2H])([2H])[2H] (mixture of isomers) [Rac (R) I-248]
[1]; [7]
  concentration at 0.25 h: 235 ng/mL
  concentration at 1 h: 134 ng/mL
  concentration at 4 h: 27.8 ng/mL
[1]; [8]
  concentration at 0.25 h: 377 ± 123 ng/mL
  concentration at 1 h: 144 ± 15.9 ng/mL
  concentration at 4 h: 18.8 ± 8.29 ng/mL
[1]; [9]
  concentration at 0.25 h: 437 ng/mL
  concentration at 1 h: 135 ng/mL
  concentration at 4 h: 11.5 ng/mL
[1]; [10]
  concentration at 0.25 h: 459 ng/mL
  concentration at 1 h: 162 ng/mL
  concentration at 4 h: 17 ng/mL
[1]; [11]
  half-life: 75 min
[1]; [12]
  half-life: 56.3 ± 16.1 min
[1]; [13]
  half-life: 44.8 min
[1]; [14]
  half-life: 49.4 min
[1]; [15]
  AUC(0-t): 402 ng·h/mL
[1]; [16]
  AUC(0-t): 474 ± 71 ng·h/mL
[1]; [17]
  AUC(0-t): 477 ng·h/mL
[1]; [18]
  AUC(0-t): 544 ng·h/mL

## [2H]C([2H])(c1c[nH]c2ccc(OCCCCCN3C(=O)c4ccccc4C3=O)cc12)[C@H]1CCCN1C([2H])([2H])[2H] [(R) I-245, (R)-2-(5-((3-((1-(Methyl-d3)pyrrolidin-2-yl)methyl-d2)-1H-indol-5-yl)oxy)pentyl)isoindoline-1,3-dione]
[1]; [7]
  concentration at 0.25 h: 307 ng/mL
  concentration at 1 h: 170 ng/mL
  concentration at 4 h: 39.9 ng/mL
[1]; [8]
  concentration at 0.25 h: 178 ± 119 ng/mL
  concentration at 1 h: 130 ± 36.6 ng/mL
  concentration at 4 h: 43.9 ± 4.21 ng/mL
[1]; [9]
  concentration at 0.25 h: 154 ng/mL
  concentration at 1 h: 121 ng/mL
  concentration at 4 h: 43.6 ng/mL
[1]; [10]
  concentration at 0.25 h: 71.8 ng/mL
  concentration at 1 h: 98.3 ng/mL
  concentration at 4 h: 48.3 ng/mL
[1]; [11]
  half-life: 79.2 min
[1]; [12]
  half-life: 126 ± 48.4 min
[1]; [13]
  half-life: 123 min
[1]; [14]
  half-life: 176 min
[1]; [15]
  AUC(0-t): 528 ng·h/mL
[1]; [16]
  AUC(0-t): 397 ± 120 ng·h/mL
[1]; [17]
  AUC(0-t): 370 ng·h/mL
[1]; [18]
  AUC(0-t): 293 ng·h/mL
